Patent US12209142B2, “SARS-CoV-2 epitope-targeted peptide immunostimulants” (Institute for Systems Biology, priority 2020, dated 2025)
Where a SMILES comes first, the peptide text is derived from it. Bridges are numbered along the chain shown (N, C = ends). Triazole bridges read from a SMILES are 1,4-linked. [ ]: non-standard residue; d: D form. The star is where a group is joined. Biotin = O=C1N[C@H]2[C@H](CS[C@H]2CCCCC(=O)*)N1; Lys(N3) = [N-]=[N+]=NCCCC[C@H](N)C(=O)O; PEG5 = NCCOCCOCCOCCOCCOCCC(=O)O; Pra = C#CC[C@H](N)C(=O)O

System: K. pneumoniae cells (strain BAA 1705)
Assay: Gentamicin protection assay: phagocytosis and opsonophagocytic killing (OPK) by macrophages
Type: cell-based, Klebsiella pneumoniae
Summary of the method: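 Strain BAA 1705 treated with DNP-conjugated EPIs (5 μM), opsonized with anti-DNP antibody, then given to murine bone-marrow macrophages at MOI 50 for 0.5 h at 37° C. Extracellular bacteria killed with gentamicin (100 μg/ml). Macrophages lysed at 1 h (phagocytosis) and 24 h (OPK); intracellular CFU counted on LB agar, in triplicate.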

CC(C)C[C@@H]1NC(=O)[C@@H](NC(=O)CCOCCOCCOCCOCCOCCNC(=O)CCCC[C@@H]2SC[C@@H]3NC(=O)N[C@@H]32)Cc2cn(nn2)CCCC[C@@H](C(N)=O)NC(=O)[C@H](Cc2ccccc2)NC(=O)[C@H](Cc2ccccc2)NC(=O)[C@H](Cc2ccccc2)NC(=O)[C@H](CC(C)C)NC1=O [cy(LLFFF)] ({Biotin-PEG5}-[Pra]LLFFF[Lys(N3)]-NH2; triazole 1-7; N-terminus and C-terminus assumed)
CFU at 6 hrs, DNP-conjugated EPI and anti-DNP antibody (macrophages harvested at 6 hrs): more than 80,000 CFU | cell counts at 6 hrs, DNP-conjugated EPI without antibody (macrophages harvested at 6 hrs): ~35,000 | colony counts at 24 h (OPK) (macrophages harvested at 24 h): little to no cell counts
